Measurements: ChEMBL document CHEMBL1125716, “1,2,4-Triazolo[4,3-a]pyrazine derivatives with human renin inhibitory activity. 3.1 Synthesis and biological properties of aminodeoxystatine and difluorostatone derivatives” (J Med Chem, 1991)

Target: T1, Renin (Homo sapiens, UniProt P00797)
T1 sequence (P00797 whole entry): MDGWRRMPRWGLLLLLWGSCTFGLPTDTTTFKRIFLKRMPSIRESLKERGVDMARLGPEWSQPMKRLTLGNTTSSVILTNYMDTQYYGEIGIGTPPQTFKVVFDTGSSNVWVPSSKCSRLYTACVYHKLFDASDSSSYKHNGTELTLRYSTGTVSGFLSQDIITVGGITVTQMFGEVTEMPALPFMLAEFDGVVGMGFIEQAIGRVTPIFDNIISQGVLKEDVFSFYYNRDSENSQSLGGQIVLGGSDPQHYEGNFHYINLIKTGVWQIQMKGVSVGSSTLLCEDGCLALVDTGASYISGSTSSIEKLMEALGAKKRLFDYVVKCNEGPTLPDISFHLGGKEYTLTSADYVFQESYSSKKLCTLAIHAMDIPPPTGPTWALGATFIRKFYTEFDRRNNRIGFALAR
Test: Inhibition of human renin

IC50	SMILES
6.1 nM	CC(C)Cc1nc(-c2ccccc2)cn2c([C@@H](Cc3cccnc3)C(=O)N[C@H](CC3CCCCC3)C(N)CC(=O)NC(CC(C)C)C(=O)NCc3ccccn3)nnc12 (stereo in doubt; 13c)
1.9 nM	CC(C)Cc1nc(-c2ccccc2)cn2c(CC(=O)NC(CC3CCCCC3)C(=O)C(F)(F)C(=O)NC(CC(C)C)C(=O)NCc3ccccn3)nnc12 (stereo unspecified)
100 nM	CC(C)Cc1nc(-c2ccccc2)cn2c([C@H](Cc3cccnc3)C(=O)N[C@@H](CC3CCCCC3)C(N)CC(=O)NC(CC(C)C)C(=O)NCc3ccccn3)nnc12 (stereo in doubt; 13b)
120 nM	CC(C)Cc1nc(-c2ccccc2)cn2c([C@@H](Cc3cccnc3)C(=O)N[C@H](CC3CCCCC3)C(N)CC(=O)NC(CC(C)C)C(=O)NCc3ccccn3)nnc12 (stereo in doubt; 13d)
1.6 nM	CCCc1nc(-c2cccnc2)cn2c(CC(=O)NC(CC3CCCCC3)C(=O)C(F)(F)C(=O)NCCC(C)C)nnc12 (stereo unspecified)
1.7 nM	CC(C)Cc1nc(-c2ccccc2)cn2c(C(Cc3cccnc3)C(=O)NC(CC(C)CC3CCCCC3)C(O)CC(=O)NC(CC(C)C)C(=O)NCc3cccc(CN)c3)nnc12 (stereo unspecified)
3.9 nM	CC(C)Cc1nc(-c2ccccc2)cn2c([C@H](Cc3cccnc3)C(=O)N[C@@H](CC3CCCCC3)C(N)CC(=O)NC(CC(C)C)C(=O)NCc3ccccn3)nnc12 (stereo in doubt; 13a)
38 nM	CC(C)CCNC(=O)C(F)(F)C(=O)C(CC1CCCCC1)NC(=O)Cc1nnc2c(CC(C)C)nc(-c3ccccc3)cn12 (stereo unspecified)
1.4 nM	CCCc1nc(-c2cccnc2)cn2c(CC(=O)NC(CC3CCCCC3)C(=O)C(F)(F)C(=O)NCC)nnc12 (stereo unspecified)
1.8 nM	CCCc1nc(-c2cccnc2)cn2c(C(Cc3cccnc3)C(=O)NC(CC3CCCCC3)C(=O)C(F)(F)C(=O)NCCC(C)C)nnc12 (stereo unspecified)
1.7 nM	CCCc1nc(-c2cccnc2)cn2c(CC(=O)NC(CC3CCCCC3)C(=O)C(F)(F)C(=O)NCC(C)CC)nnc12 (stereo unspecified)
